Columns and labels:
[1] = test system: scopolamine-impaired passive avoidance learning; test: Reversal of scopolamine-induced amnesia of a passive-avoidance response; format: in vivo, Wistar rats; conditions: mean ± SEM (n)
Protocol: (b) Reversal of Scopolamine-induced Amnesia of a Passive-avoidance Response.
Postnatal day 80 male Wistar rats (300-350 g) were obtained from the Biomedical Facility, University College, Dublin. These were housed singly in a 12 h light/dark cycle with food and water available ad libitum. Animals employed for neurobehavioral studies were maintained and handled in the test environment for 3 days prior to the commencement of studies. All experimental procedures were approved by the Review Committee of the Biomedical Facility of University College, Dublin and were carried out by individuals who held the appropriate license issued by the Ministry of Health.
Animals were trained in a one-trial, step-through, light-dark passive avoidance paradigm. The apparatus consisted of a box measuring 300 mm wide×260 mm deep×270 mm high. The front and top were transparent, allowing observation of behavior inside the apparatus. The box was divided into two compartments, separated by a central shutter which contained a small opening 50 mm wide and 75 mm high. The smaller of the compartments measured 90 mm in width and contained a low power (6 V V) illumination source—the light compartment. The large compartment measured 210 mm in width and was not illuminated. The floor of the training apparatus consisted of a grid of stainless steel bars which could deliver a remotely-controlled, scrambled shock (0.75 mA every 0.5 msec, 5 sec duration) when the animal entered the dark chamber with all four paws. The animals were tested for recall of this inhibitory stimulus prior to sacrifice by placing them into the light compartment and noting their latency to enter the dark compartment. A criterion period of 300 sec was used. The results of this protocol, after administration of saline, scopolamine, test compound, and scopolaine plus test compound, are presented in Table 3.

acetylcholinesterase = target: T1, acetylcholinesterase (Rattus norvegicus, UniProt P37136); test: Acetylcholinesterase activity in rat brain homogenate (Ellman spectrophotometric method); format: biochemical, Wistar rat; conditions: rat brain enzyme preparation
T1 construct: Wistar rat brain was homogenized in 10% (w/v) of ice-cold Tris-buffered saline; from tissue; host or cells: Wistar rat brain homogenate, 10,000 g supernatant
T1 sequence (P37136 32-614): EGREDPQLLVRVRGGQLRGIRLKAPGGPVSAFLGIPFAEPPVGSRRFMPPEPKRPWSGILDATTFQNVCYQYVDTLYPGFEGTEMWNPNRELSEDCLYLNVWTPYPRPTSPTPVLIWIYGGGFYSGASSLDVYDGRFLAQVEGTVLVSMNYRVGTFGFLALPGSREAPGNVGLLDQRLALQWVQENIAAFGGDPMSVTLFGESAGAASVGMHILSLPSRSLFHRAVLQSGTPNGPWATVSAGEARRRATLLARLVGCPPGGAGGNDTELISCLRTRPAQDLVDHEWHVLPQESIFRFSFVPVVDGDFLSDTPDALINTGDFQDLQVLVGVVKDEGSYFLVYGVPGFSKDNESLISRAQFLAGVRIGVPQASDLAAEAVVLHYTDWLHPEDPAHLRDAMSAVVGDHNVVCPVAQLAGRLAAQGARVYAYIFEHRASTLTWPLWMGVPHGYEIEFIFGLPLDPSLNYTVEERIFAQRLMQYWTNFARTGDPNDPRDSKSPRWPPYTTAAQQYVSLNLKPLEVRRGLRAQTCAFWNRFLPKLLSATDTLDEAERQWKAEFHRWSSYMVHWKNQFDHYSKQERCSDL
Protocol: Wistar rat brain was homogenized in 10% (w/v) of ice-cold Tris-buffered saline which comprised 10 mM Tris HCl, pH 7.4, 1 mM ethylenediaminetetraacetic acid, 0.9% (w/v) bovine serum albumin. Homogenates were centrifuged at 10,000 g for 10 minutes at 4° C. Supernatants were decanted and stored in aliquots at −70° C. until required.
Briefly, the assay was carried out at room temperature using 0.1 M phosphate buffer, pH 8.0, containing 0.075 M acetylthiocholine iodide and 0.01 M 5,5-dithio-bis-(2-nitrobenzoic acid) (DTNB). The DTNB was prepared in 0.1 M phosphate buffer, pH 7.0, which contained 0.018 M sodium bicarbonate to ensure stability. The reaction was started by the addition of 100 μg of enzyme preparation to a final assay volume of 3.2 ml, and mixed thoroughly. Progress was monitored spectrophotometrically at 412 nm for a continuous period. A blank was run in conjunction with each assay and differed from the test only in that it contained phosphate buffer in place of acetylthiocholine iodide. AchE was assayed in the presence of ethopropazine, which was prepared in ethanol. […] BCHE was measured in the presence of 10^−5 M 1,5-bis-(4-trimethylammoniophenyl)pentan-3-one dibromide (62C47), a specific acetylcholinesterase inhibitor which was added to a final concentration of 10^−5 M. All solutions were freshly prepared and protected from light. Acetylthiocholine, DTNB, 62C47 and ethopropazine were obtained from Sigma Chemical Co., St. Louis, Mo. All other reagents were of the highest grade available from routine suppliers.
Results are expressed as mM acetylthiocholine hydrolysed/100 ug protein/min in Table 1. […] To facilitate comparison between compounds requiring different solubilization vehicles, the relevant results are expressed as percent of the control value in Table 2.

[2] = test compound 10 mg/kg + scopolamine 0.8 mg/kg
[3] = test compound 30 mg/kg + scopolamine 0.8 mg/kg
[4] = test compound 10 mg/kg alone, 10 mg/kg

Compound	passive avoidance latency, Test cpd. + scopolamine [1, 2]	passive avoidance latency, Test cpd. + scopolamine [1, 3]	Acetylcholinesterase activity in the presence of compound (acetylcholinesterase; compound concentration 100 nM)	Acetylcholinesterase activity in the presence of compound (acetylcholinesterase; compound concentration 10 μM)	Acetylcholinesterase activity in the presence of compound (acetylcholinesterase; compound concentration 1.0 mM)	also measured
N[C@@H]1c2ccccc2CN2CCCC[C@H]12 (relative stereo) [Example 15, trans-1,3,4,6,11,11a-Hexahydro-11-amino-2H-benzo[b]quinolizine]	148 ± 101 (5) seconds	132 ± 103 (6) seconds	2.20 mM substrate hydrolyzed/min/100 μg protein	2.00 mM substrate hydrolyzed/min/100 μg protein	0.20 mM substrate hydrolyzed/min/100 μg protein	passive avoidance latency, Test cpd. alone ([1]; test compound 10 mg/kg alone): 292 ± 92 (6) seconds; passive avoidance latency, Test cpd. alone ([1]; test compound 30 mg/kg alone): 188 ± 102 (6) seconds
O[C@@H]1c2ccccc2CN2CCCC[C@@H]12 (relative stereo) [Example 18a, cis-1,3,4,6,11,11a-hexahydro-2H-benzo[b]quinolizidin-11-ol]	–	–	2.30 mM substrate hydrolyzed/min/100 μg protein	2.10 mM substrate hydrolyzed/min/100 μg protein	1.70 mM substrate hydrolyzed/min/100 μg protein	–
CC(=O)O[C@@H]1c2ccccc2CN2CCCC[C@@H]12 (relative stereo) [Example 19, O-acetyl-cis-1,3,4,6,11,11a-hexahydro-2H-benzo[b]quinolizidin-11-ol]	–	–	2.20 mM substrate hydrolyzed/min/100 μg protein	1.90 mM substrate hydrolyzed/min/100 μg protein	0.70 mM substrate hydrolyzed/min/100 μg protein	–
COc1ccc2c(c1)[C@@H](NCc1ccccc1)[C@H]1CCCCN1C2 (relative stereo) [Example 14, trans-N-Benzyl-9-methoxy-1,3,4,6,11,11a-hexahydro-11-amino-2H benzo[b]quinolizine]	–	211 ± 238 (3) seconds	–	–	–	–
CN[C@@H]1c2ccccc2CN2CCC[C@@H]12 (relative stereo) [Example 34a, cis-10-methylamino-1,2,3,5,10,10a-hexahydropyrrolo[1,2-b]isoquinoline]	–	534 ± 76 (3) seconds	–	–	–	passive avoidance latency, Test cpd. alone ([1]; test compound 30 mg/kg alone): 559 ± 50 (3) seconds
CN[C@@H]1c2ccccc2CN2CCCC[C@@H]12 (relative stereo) [Example 17, cis-N-methyl-1,3,4,6,11,11a-hexahydro-2H-benzo[b]quinolizidin-11-amine]	–	–	2.00 mM substrate hydrolyzed/min/100 μg protein	1.90 mM substrate hydrolyzed/min/100 μg protein	0.80 mM substrate hydrolyzed/min/100 μg protein	–
CN[C@@H]1c2ccccc2CN2C(=O)CC[C@@H]12 (relative stereo) [Example 26b, cis-10Methylamino-1,2,3,5,10,10a-hexahydropyrrolo[1,2b]isoquinolin-3-one]	–	182 ± 163 (4) seconds	–	–	–	passive avoidance latency, Test cpd. alone ([1]; test compound 30 mg/kg alone): 600 (3) seconds
CC(=O)O[C@@H]1c2ccccc2CN2CCCC[C@H]12 (relative stereo) [Example 20, O-acetyl-trans-1,3,4,6,11,11a-hexahydro-2H-benzo[b]quinolizidin-11-ol]	–	–	2.10 mM substrate hydrolyzed/min/100 μg protein	1.40 mM substrate hydrolyzed/min/100 μg protein	0.30 mM substrate hydrolyzed/min/100 μg protein	–
CN[C@@H]1c2cc(OC)ccc2CN2CCCC[C@H]12 (relative stereo) [Example 10, trans-N-Methyl-9-methoxy-1,3,4,6,11,11a-hexahydro11-amino-2H-benzo[b]quinolizine]	054 ± 20 (6) seconds	–	–	–	–	passive avoidance latency, Test cpd. alone ([1]; test compound 10 mg/kg alone): 592 ± 9 (6) seconds
c1ccc(CN[C@@H]2c3ccccc3CN3CCCC[C@H]23)cc1 (relative stereo) [Example 13, trans-N-Benzyl-1,3,4,6,11,11a-hexahydro-11-amino-2H-benzo[b]quinolizine]	048 ± 14 (5) seconds	–	2.30 mM substrate hydrolyzed/min/100 μg protein	1.90 mM substrate hydrolyzed/min/100 μg protein	0.20 mM substrate hydrolyzed/min/100 μg protein	passive avoidance latency, Test cpd. alone ([1]; test compound 10 mg/kg alone): 410 ± 115 (6) seconds
O[C@@H]1c2ccccc2CN2CCC[C@@H]12 (relative stereo)	–	–	–	–	–	melting point: 131 to 133 °C
CN[C@@H]1c2ccccc2CN2CCCC[C@H]12 (relative stereo) [Example 9a, trans-N-Methyl-1,3,4,6,11,11a-hexahydro-11-amino-2H-benzo[b]quinolizine]	216 ± 260 (2) seconds	–	–	–	–	passive avoidance latency, Test cpd. alone [1, 4]: 328 ± 177 (3) seconds
CN[C@@H]1c2ccccc2CN2CCCC[C@H]12 (relative stereo) [Example 9, trans-N-Methyl-1,3,4,6,11,11a-hexahydro-11-amino-2H-benzo[b]quinolizine]	104 ± 48 (12) seconds	258 ± 156 (5) seconds	–	2.00 mM substrate hydrolyzed/min/100 μg protein	0.30 mM substrate hydrolyzed/min/100 μg protein	passive avoidance latency, Test cpd. alone [1, 4]: 459 ± 53 (12) seconds; passive avoidance latency, Test cpd. alone ([1]; test compound 30 mg/kg alone): 529 ± 78 (6) seconds; passive avoidance latency, Test cpd. + scopolamine ([1]; test compound 45 mg/kg + scopolamine 0.8 mg/kg): 322 ± 112 (8) seconds; passive avoidance latency, Test cpd. alone ([1]; test compound 45 mg/kg alone): 340 ± 146 (5) seconds
O[C@@H]1c2ccccc2CN2CCCC[C@H]12 (relative stereo) [Example 18b, trans-1,3,4,6,11,11a-hexahydro-2H-benzo[b]quinolizidin-11-ol]	–	–	2.50 mM substrate hydrolyzed/min/100 μg protein	1.90 mM substrate hydrolyzed/min/100 μg protein	1.00 mM substrate hydrolyzed/min/100 μg protein	–

— patent US6436954B1, “Benzoquinolizidine and benzoindolizidine derivatives and therapeutic uses thereof” (priority 1998, dated 2002)
